Tests used:
Assay in all cases: MIC of compounds alone and combined with antibacterials, broth microdilution (CLSI)
Assay type in all cases: cell-based
[1] = tested on: Serratia marcescens (SMA) isolates
How it was run: (§1)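 Broth microdilution in cation-adjusted Mueller-Hinton broth, inoculum 5.10^5 CFU/mL, 16-20 h at 35° C in ambient air, on genotyped isolates. Compound MIC, alone or with an antibacterial, taken visually as lowest concentration preventing growth; antibacterial MIC determined at each compound concentration.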

[2] = tested on: Providencia rettgeri (PRE) isolates
How it was run: as §1

[3] = tested on: Salmonella typhimurium (STY) isolates; conditions: for MIC ATB in combination: STY S3371
Method: (§2) Method 2: MIC of Compounds Alone and Combined with Antibacterials Against Bacterial Isolates
(§3) Compounds of the present invention were assessed against genotyped bacterial strains (Table 3, 4) alone or in combination with an antibacterial (Table 2). […]. Briefly, compounds alone according to the invention were prepared in DMSO and spotted (2 μL each) on sterile polystyrene plates (Corning, 3788). Combinations of compounds and antibiotics dilutions were prepared in DMSO and spotted (1 μL each) on sterile polystyrene plates (Corning, 3788). Log phase bacterial suspensions were adjusted to a final density of 5.10^5 CFU/mL in cation-adjusted Mueller-Hinton broth (ca-MHB; Becton-Dickinson and Company) and added to each well (98 μL). Microplates were incubated for 16-20 h at 35° C. in ambient air. The MIC of the compounds was defined as the lowest concentration of said compounds that prevented bacterial growth as read by visual inspection. The MIC of ATB at each compound concentration was defined as the lowest concentration of ATB that prevented bacterial growth as read by visual inspection.

[4] = tested on: Providencia stuartii (PST) isolates
Method: as §2, §3

## CC(C)(O/N=C(\C(=O)N[C@@H]1C(=O)N2C(C(=O)[O-])=C(C[n+]3ccccc3)CS[C@H]12)c1csc(N)n1)C(=O)O [CAZ, Ceftazidime]
[1]; SMA UFR30, AF2 @ 8 μg/mL
  MIC ATB in combination: 0.5 µg/mL
[1]; SMA UFR30, AF3 @ 8 μg/mL
  MIC ATB in combination: <=0.25 μg/mL
[1]; SMA UFR134, AF2 @ 8 μg/mL
  MIC ATB in combination: <=0.25 μg/mL
[1]; SMA UFR134, AF3 @ 8 μg/mL
  MIC ATB in combination: 0.5 µg/mL
[1]; SMA UFR135, AF2 @ 8 μg/mL
  MIC ATB in combination: 2 µg/mL
[1]; SMA UFR135, AF3 @ 8 μg/mL
  MIC ATB in combination: 4 µg/mL
[1]; SMA UFR136, AF2 @ 8 μg/mL
  MIC ATB in combination: 2 µg/mL
[1]; SMA UFR136, AF3 @ 8 μg/mL
  MIC ATB in combination: 1 µg/mL
[1]; SMA UFR137, AF2 @ 8 μg/mL
  MIC ATB in combination: <=0.25 μg/mL
[1]; SMA UFR137, AF3 @ 8 μg/mL
  MIC ATB in combination: 0.5 µg/mL
[1]; SMA UFR138, AF2 @ 8 μg/mL
  MIC ATB in combination: 0.5 µg/mL
[1]; SMA UFR138, AF3 @ 8 μg/mL
  MIC ATB in combination: <=0.25 μg/mL
[1]; SMA UFR139, AF2 @ 8 μg/mL
  MIC ATB in combination: 1 µg/mL
[1]; SMA UFR139, AF3 @ 8 μg/mL
  MIC ATB in combination: <=0.25 μg/mL
[1]; SMA UFR141, AF2 @ 8 μg/mL
  MIC ATB in combination: <=0.25 μg/mL
[1]; SMA UFR141, AF3 @ 8 μg/mL
  MIC ATB in combination: 0.5 µg/mL
[1]; SMA UFR142, AF2 @ 8 μg/mL
  MIC ATB in combination: 0.5 µg/mL
[1]; SMA UFR142, AF3 @ 8 μg/mL
  MIC ATB in combination: 0.5 µg/mL
[1]; SMA UFR143, AF2 @ 8 μg/mL
  MIC ATB in combination: <=0.25 μg/mL
[1]; SMA UFR143, AF3 @ 8 μg/mL
  MIC ATB in combination: <=0.25 μg/mL
[1]; SMA UFR239, AF2 @ 8 μg/mL
  MIC ATB in combination: 4 µg/mL
[1]; SMA UFR239, AF3 @ 8 μg/mL
  MIC ATB in combination: 0.5 µg/mL
[1]; strain SMA UFR30, genotype OXA-405
  MIC: 8 µg/mL
[1]; strain SMA UFR134, genotype TEM-1, BES-1
  MIC: 8 µg/mL
[1]; strain SMA UFR135, genotype TEM-1, KPC-2
  MIC: 32 µg/mL
[1]; strain SMA UFR136, genotype TEM-1, SHV-12, KPC-2
  MIC: >256 µg/mL
[1]; strain SMA UFR137, genotype SME-1
  MIC: 0.5 µg/mL
[1]; strain SMA UFR138, genotype SME-1
  MIC: <=0.25 μg/mL
[1]; strain SMA UFR139, genotype SME-2
  MIC: <=0.25 μg/mL
[1]; strain SMA UFR140, genotype IMP-1
  MIC: >128 µg/mL
[1]; strain SMA UFR140, with AF2 @ 8 μg/mL
  MIC ATB in combination: >128 µg/mL
[1]; strain SMA UFR140, with AF3 @ 8 μg/mL
  MIC ATB in combination: >128 µg/mL
[1]; strain SMA UFR141, genotype OXA-48
  MIC: 1 µg/mL
[1]; strain SMA UFR142, genotype OXA-48
  MIC: 0.5 µg/mL
[1]; strain SMA UFR143, genotype CTX-M-15, OXA-1, OXA-48
  MIC: 64 µg/mL
[1]; strain SMA UFR238, genotype OXA-48
  MIC: 0.5 µg/mL
[1]; strain SMA UFR238, with AF2 @ 8 μg/mL
  MIC ATB in combination: 0.5 µg/mL
[1]; strain SMA UFR238, with AF3 @ 8 μg/mL
  MIC ATB in combination: <=0.25 μg/mL
[1]; strain SMA UFR239, genotype ESAC
  MIC: 32 µg/mL
[2]; PRE UFR99, AF2 @ 8 μg/mL
  MIC ATB in combination: >128 µg/mL
[2]; PRE UFR99, AF3 @ 8 μg/mL
  MIC ATB in combination: >128 µg/mL
[2]; strain PRE UFR96, with AF2 @ 8 μg/mL
  MIC ATB in combination: <0.25 µg/mL
[2]; strain PRE UFR96, with AF3 @ 8 μg/mL
  MIC ATB in combination: <0.25 µg/mL
[2]; strain PRE UFR97, with AF2 @ 8 μg/mL
  MIC ATB in combination: >128 µg/mL
[2]; strain PRE UFR97, with AF3 @ 8 μg/mL
  MIC ATB in combination: >128 µg/mL
[2]; strain PRE UFR236, genotype TEM-1, OXA-48
  MIC: 32 µg/mL
[2]; strain PRE UFR236, with AF2 @ 8 μg/mL
  MIC ATB in combination: 0.5 µg/mL
[2]; strain PRE UFR236, with AF3 @ 8 μg/mL
  MIC ATB in combination: <=0.25 μg/mL
[3]; AF2 @ 8 μg/mL
  MIC ATB in combination: <0.25 µg/mL
[3]; AF3 @ 8 μg/mL
  MIC ATB in combination: <0.25 µg/mL
[3]; strain STY S3371, genotype OXA-1
  MIC: 0.5 µg/mL
[4]; PST UFR94, AF2 @ 8 μg/mL
  MIC ATB in combination: <=0.25 μg/mL
[4]; PST UFR94, AF3 @ 8 μg/mL
  MIC ATB in combination: <=0.25 μg/mL
[4]; PST UFR95, AF2 @ 8 μg/mL
  MIC ATB in combination: <=0.25 μg/mL
[4]; PST UFR95, AF3 @ 8 μg/mL
  MIC ATB in combination: <=0.25 μg/mL
[4]; PST UFR120, AF2 @ 8 μg/mL
  MIC ATB in combination: <0.25 µg/mL
[4]; PST UFR120, AF3 @ 8 μg/mL
  MIC ATB in combination: <0.25 µg/mL
[4]; PST UFR121, AF2 @ 8 μg/mL
  MIC ATB in combination: <0.25 µg/mL
[4]; PST UFR121, AF3 @ 8 μg/mL
  MIC ATB in combination: <0.25 µg/mL
[4]; PST UFR122, AF2 @ 8 μg/mL
  MIC ATB in combination: <0.25 µg/mL
[4]; PST UFR122, AF3 @ 8 μg/mL
  MIC ATB in combination: <0.25 µg/mL
[4]; PST UFR123, AF2 @ 8 μg/mL
  MIC ATB in combination: <=0.25 μg/mL
[4]; PST UFR123, AF3 @ 8 μg/mL
  MIC ATB in combination: <0.25 µg/mL
[4]; PST UFR124, AF2 @ 8 μg/mL
  MIC ATB in combination: <=0.25 μg/mL
[4]; PST UFR124, AF3 @ 8 μg/mL
  MIC ATB in combination: <0.25 µg/mL
[4]; PST UFR125, AF2 @ 8 μg/mL
  MIC ATB in combination: <=0.25 μg/mL
[4]; PST UFR125, AF3 @ 8 μg/mL
  MIC ATB in combination: <0.25 µg/mL
[4]; PST UFR235, AF2 @ 8 μg/mL
  MIC ATB in combination: <=0.25 μg/mL
[4]; PST UFR235, AF3 @ 8 μg/mL
  MIC ATB in combination: <=0.25 μg/mL
[4]; strain PST UFR94, genotype CTX-M-14
  MIC: 1 µg/mL
[4]; strain PST UFR95, genotype TEM-24
  MIC: 64 µg/mL
[4]; strain PST UFR98, genotype TEM-1, CMY-6, OXA-1, NDM-1, RmtC
  MIC: >256 µg/mL
[4]; strain PST UFR98, with AF2 @ 8 μg/mL
  MIC ATB in combination: >128 µg/mL
[4]; strain PST UFR98, with AF3 @ 8 μg/mL
  MIC ATB in combination: <0.25 µg/mL
[4]; strain PST UFR235, genotype VEB-1
  MIC: >128 µg/mL

— patent publication US20200017495A1, “NOVEL HETEROCYCLIC COMPOUNDS AND THEIR USE IN PREVENTING OR TREATING BACTERIAL INFECTIONS” (priority 2017, published 2020)
